The supplement of paper PMC10307832

Tests used:
Experiment in all cases: relative viability (nuclei count vs DMSO), 5 days (fraction); higher = more cells survive
EPLC-272H = test system: EPLC-272H
Method in brief: (§1)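 Each reported value is a median over duplicate plates. It expresses relative viability: treated-well nuclei count divided by vehicle-well nuclei count. Lung cancer cell lines in 1536-well plates were dosed by pin tool a day after seeding, alone with one drug or with a fixed anchor-drug dose plus five library-drug doses (not always all listed) in √10 steps, and nuclei were counted after 5 days.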

H3255 = test system: H3255
Method in brief: as §1

HARA = test system: HARA
Method in brief: as §1

LC-2-ad = test system: LC-2-ad
Method in brief: as §1

LOU-NH91 = test system: LOU-NH91
Method in brief: as §1

NCI-H1650 = test system: NCI-H1650
Method in brief: as §1

NCI-H1651 = test system: NCI-H1651
Method in brief: as §1

NCI-H1975 = test system: NCI-H1975
Method in brief: as §1

NCI-H2009 = test system: NCI-H2009
Method in brief: as §1

NCI-H2023 = test system: NCI-H2023
Method in brief: as §1

NCI-H2085 = test system: NCI-H2085
Method in brief: as §1

NCI-H2087 = test system: NCI-H2087
Method in brief: as §1

## CCNC(=O)c1noc(-c2cc(C(C)C)c(O)cc2O)c1-c1ccc(CN2CCOCC2)cc1 [Luminespib] + O=C(CCCCCCC(=O)Nc1ccccc1)NO [Vorinostat] (partner 1 µM)
EPLC-272H; first compound 0.002 µM
  relative viability: 0.402
EPLC-272H; first compound 0.006325 µM
  relative viability: 0.381
EPLC-272H; first compound 0.02 µM
  relative viability: 0.505
EPLC-272H; first compound 0.06325 µM
  relative viability: 0.0961
EPLC-272H; first compound 0.2 µM
  relative viability: 0.171
H3255; first compound 0.002 µM
  relative viability: 0.843
H3255; first compound 0.02 µM
  relative viability: 0.625
H3255; first compound 0.06325 µM
  relative viability: 0.745
H3255; first compound 0.2 µM
  relative viability: 0.248
HARA; first compound 0.002 µM
  relative viability: 0.51
HARA; first compound 0.006325 µM
  relative viability: 0.504
HARA; first compound 0.02 µM
  relative viability: 0.591
HARA; first compound 0.06325 µM
  relative viability: 0.589
HARA; first compound 0.2 µM
  relative viability: 0.132
LC-2-ad; first compound 0.002 µM
  relative viability: 0.647
LC-2-ad; first compound 0.006325 µM
  relative viability: 0.727
LC-2-ad; first compound 0.02 µM
  relative viability: 0.554
LC-2-ad; first compound 0.06325 µM
  relative viability: 0.465
LC-2-ad; first compound 0.2 µM
  relative viability: 0.179
LOU-NH91; first compound 0.002 µM
  relative viability: 0.935
LOU-NH91; first compound 0.006325 µM
  relative viability: 0.872
LOU-NH91; first compound 0.02 µM
  relative viability: 0.647
LOU-NH91; first compound 0.06325 µM
  relative viability: 0.335
LOU-NH91; first compound 0.2 µM
  relative viability: 0.377
NCI-H1650; first compound 0.002 µM
  relative viability: 0.478
NCI-H1650; first compound 0.006325 µM
  relative viability: 0.516
NCI-H1650; first compound 0.02 µM
  relative viability: 0.388
NCI-H1650; first compound 0.06325 µM
  relative viability: 0.139
NCI-H1650; first compound 0.2 µM
  relative viability: 0.135
NCI-H1651; first compound 0.002 µM
  relative viability: 0.516
NCI-H1651; first compound 0.006325 µM
  relative viability: 0.481
NCI-H1651; first compound 0.02 µM
  relative viability: 0.371
NCI-H1651; first compound 0.06325 µM
  relative viability: 0.542
NCI-H1651; first compound 0.2 µM
  relative viability: 0.505
NCI-H1975; first compound 0.002 µM
  relative viability: 0.736
NCI-H1975; first compound 0.006325 µM
  relative viability: 0.632
NCI-H1975; first compound 0.02 µM
  relative viability: 0.592
NCI-H1975; first compound 0.06325 µM
  relative viability: 0.138
NCI-H1975; first compound 0.2 µM
  relative viability: 0.147
NCI-H2009; first compound 0.002 µM
  relative viability: 0.765
NCI-H2009; first compound 0.006325 µM
  relative viability: 0.594
NCI-H2009; first compound 0.02 µM
  relative viability: 0.705
NCI-H2009; first compound 0.06325 µM
  relative viability: 0.429
NCI-H2009; first compound 0.2 µM
  relative viability: 0.113
NCI-H2023; first compound 0.002 µM
  relative viability: 0.7
NCI-H2023; first compound 0.006325 µM
  relative viability: 0.527
NCI-H2023; first compound 0.02 µM
  relative viability: 0.236
NCI-H2023; first compound 0.06325 µM
  relative viability: 0.0453
NCI-H2023; first compound 0.2 µM
  relative viability: 0.0503
NCI-H2085; first compound 0.002 µM
  relative viability: 0.797
NCI-H2085; first compound 0.006325 µM
  relative viability: 0.717
NCI-H2085; first compound 0.02 µM
  relative viability: 0.553
NCI-H2085; first compound 0.06325 µM
  relative viability: 0.367
NCI-H2085; first compound 0.2 µM
  relative viability: 0.31
NCI-H2087; first compound 0.002 µM
  relative viability: 0.667
NCI-H2087; first compound 0.006325 µM
  relative viability: 0.609
